According to the supplement of paper PMC10627819:

Tests used:
Assay in all cases: Bliss interaction score (quartile over a dose matrix) (fitness difference); higher = more antagonism (negative = synergy)
[1] = tested on: S. aureus DSM 20231
Summary of the method: (§1)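 Quartiles of the Bliss score were taken over technical, biological and donor/recipient replicates. That score is observed fitness minus the product of the single-drug fitness values, which were inferred from combination data. Fitness itself is OD595 at entry into stationary phase divided by the plate's robust no-drug mean, with a cap at 1.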

[2] = tested on: B. subtilis 168
Summary of the method: as §1

[3] = tested on: S. pneumoniae D39V
Summary of the method: as §1

[4] = tested on: S. aureus Newman
Summary of the method: as §1
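Note: first quartile when negative (synergy) and third quartile when positive (antagonism).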

SMILES | Bliss interaction score [1] | Bliss interaction score [2] | Bliss interaction score [3] | Bliss interaction score [4]
CO/N=C(\C(=O)N[C@@H]1C(=O)N2C(C(=O)[O-])=C(C[N+]3(C)CCCC3)CS[C@H]12)c1csc(N)n1 [Cefepime] + CO/N=C(\C(=O)N[C@@H]1C(=O)N2C(C(=O)O)=C(COC(N)=O)CS[C@H]12)c1ccco1 [Cefuroxime] | 0.0866 | -0.0417 | -0.0435 | 0.0741
CO/N=C(\C(=O)N[C@@H]1C(=O)N2C(C(=O)[O-])=C(C[N+]3(C)CCCC3)CS[C@H]12)c1csc(N)n1 [Cefepime] + CO[C@@H]1[C@@H](OC(N)=O)[C@@H](O)[C@H](Oc2ccc3c(O)c(NC(=O)c4ccc(O)c(CC=C(C)C)c4)c(=O)oc3c2C)OC1(C)C [Novobiocin] | 0.0654 | -0.104 | -0.098 | 0.0516
CO/N=C(\C(=O)N[C@@H]1C(=O)N2C(C(=O)[O-])=C(C[N+]3(C)CCCC3)CS[C@H]12)c1csc(N)n1 [Cefepime] + CO[C@@]12[C@H](COC(N)=O)C3=C(C(=O)C(C)=C(N)C3=O)N1C[C@@H]1N[C@@H]12 [MitomycinC] | -0.0534 | -0.153 | 0.125 | 0.0543
CO/N=C(\C(=O)N[C@@H]1C(=O)N2C(C(=O)[O-])=C(C[N+]3(C)CCCC3)CS[C@H]12)c1csc(N)n1 [Cefepime] + COc1cccc2c1C(=O)c1c(O)c3c(c(O)c1C2=O)C[C@@](O)(C(=O)CO)C[C@@H]3O[C@H]1C[C@H](N)[C@H](O)[C@H](C)O1 [Doxorubicin] | -0.1 | -0.239 | 0.0847 | -0.0429
CO/N=C(\C(=O)N[C@@H]1C(=O)N2C(C(=O)[O-])=C(C[N+]3(C)CCCC3)CS[C@H]12)c1csc(N)n1 [Cefepime] + C[C@H]1c2cccc(O)c2C(=O)C2=C(O)[C@]3(O)C(=O)C(C(N)=O)=C(O)[C@@H](N(C)C)[C@@H]3[C@@H](O)[C@@H]21 [Doxycycline] | 0.119 | 0.0669 | 0.203 | 0.0446
CO/N=C(\C(=O)N[C@@H]1C(=O)N2C(C(=O)[O-])=C(C[N+]3(C)CCCC3)CS[C@H]12)c1csc(N)n1 [Cefepime] + N[C@@H]1CONC1=O [CycloserineD] | 0.0932 | 0.0718 | 0.0926 | -0.0561
CO/N=C(\C(=O)N[C@@H]1C(=O)N2C(C(=O)[O-])=C(C[N+]3(C)CCCC3)CS[C@H]12)c1csc(N)n1 [Cefepime] + O=C(N[C@H](CO)[C@H](O)c1ccc([N+](=O)[O-])cc1)C(Cl)Cl [Chloramphenicol] | 0.158 | 0.109 | 0.149 | 0.0591
CO/N=C(\C(=O)N[C@@H]1C(=O)N2C(C(=O)[O-])=C(C[N+]3(C)CCCC3)CS[C@H]12)c1csc(N)n1 [Cefepime] + O=C(O)[C@H]1/C(=C/CO)O[C@@H]2CC(=O)N21 [Clavulanic] | 0.0843 | -0.0808 | -0.0597 | 0.0605
CO/N=C(\C(=O)N[C@@H]1C(=O)N2C(C(=O)[O-])=C(C[N+]3(C)CCCC3)CS[C@H]12)c1csc(N)n1 [Cefepime] + O=C(O)c1cn(C2CC2)c2cc(N3CCNCC3)c(F)cc2c1=O [Ciprofloxacin] | -0.0463 | -0.193 | 0.147 | 0.0601
CO/N=C(\C(=O)N[C@@H]1C(=O)N2C(C(=O)[O-])=C(C[N+]3(C)CCCC3)CS[C@H]12)c1csc(N)n1 [Cefepime] + O=C(O[C@@H]1Cc2c(O)cc(O)cc2O[C@@H]1c1cc(O)c(O)c(O)c1)c1cc(O)c(O)c(O)c1 [EGCG] | -0.159 | 0.0402 | 0.0602 | -0.0498
CO/N=C(\C(=O)N[C@@H]1C(=O)N2C(C(=O)[O-])=C(C[N+]3(C)CCCC3)CS[C@H]12)c1csc(N)n1 [Cefepime] + Oc1cc(Cl)ccc1Oc1ccc(Cl)cc1Cl [Triclosan] | 0.0725 | 0.0502 | -0.0485 | -0.0285
CCCCCCCCCC(=O)N[C@@H](Cc1c[nH]c2ccccc12)C(=O)N[C@H](CC(N)=O)C(=O)N[C@@H](CC(=O)O)C(=O)N[C@@H]1C(=O)NCC(=O)N[C@@H](CCCN)C(=O)N[C@@H](CC(=O)O)C(=O)N[C@H](C)C(=O)N[C@@H](CC(=O)O)C(=O)NCC(=O)N[C@H](CO)C(=O)N[C@@H]([C@H](C)CC(=O)O)C(=O)N[C@@H](CC(=O)c2ccccc2N)C(=O)O[C@@H]1C [Daptomycin] + CC1(C)S[C@@H]2[C@H](NC(=O)Cc3ccccc3)C(=O)N2[C@H]1C(=O)O [PenicillinG] | 0.0411 | 0.101 | 0.107 | 0.0645
CCCCCCCCCC(=O)N[C@@H](Cc1c[nH]c2ccccc12)C(=O)N[C@H](CC(N)=O)C(=O)N[C@@H](CC(=O)O)C(=O)N[C@@H]1C(=O)NCC(=O)N[C@@H](CCCN)C(=O)N[C@@H](CC(=O)O)C(=O)N[C@H](C)C(=O)N[C@@H](CC(=O)O)C(=O)NCC(=O)N[C@H](CO)C(=O)N[C@@H]([C@H](C)CC(=O)O)C(=O)N[C@@H](CC(=O)c2ccccc2N)C(=O)O[C@@H]1C [Daptomycin] + CC(=O)O[C@H]1C[C@@]2(C)[C@@H](C[C@@H](O)[C@H]3[C@@]4(C)CC[C@@H](O)[C@@H](C)[C@@H]4CC[C@@]32C)/C1=C(\CCC=C(C)C)C(=O)O [Fusidic acid] | 0.0265 | 0.0625 | -0.109 | -0.0422
CCCCCCCCCC(=O)N[C@@H](Cc1c[nH]c2ccccc12)C(=O)N[C@H](CC(N)=O)C(=O)N[C@@H](CC(=O)O)C(=O)N[C@@H]1C(=O)NCC(=O)N[C@@H](CCCN)C(=O)N[C@@H](CC(=O)O)C(=O)N[C@H](C)C(=O)N[C@@H](CC(=O)O)C(=O)NCC(=O)N[C@H](CO)C(=O)N[C@@H]([C@H](C)CC(=O)O)C(=O)N[C@@H](CC(=O)c2ccccc2N)C(=O)O[C@@H]1C [Daptomycin] + CC[C@H]1OC(=O)[C@H](C)C(=O)[C@H](C)[C@@H](O[C@@H]2O[C@H](C)C[C@H](N(C)C)[C@H]2O)[C@](C)(OC)C[C@@H](C)C(=O)[C@H](C)[C@H]2N(CCCCn3cnc(-c4cccnc4)c3)C(=O)O[C@]12C [Telithromycin] | 0.0926 | 0.0516 | -0.0436 | 0.0361
